# pIC50: −log10 of the molar value.
# Target: Tryptophan--tRNA ligase (Mycobacterium tuberculosis (strain ATCC 25618 / H37Rv), UniProt P9WFT3)
# Assay: Biochemical assay for Mt-TrpRS
# Format: functional
# Chain of Tryptophan--tRNA ligase (P9WFT3 whole entry): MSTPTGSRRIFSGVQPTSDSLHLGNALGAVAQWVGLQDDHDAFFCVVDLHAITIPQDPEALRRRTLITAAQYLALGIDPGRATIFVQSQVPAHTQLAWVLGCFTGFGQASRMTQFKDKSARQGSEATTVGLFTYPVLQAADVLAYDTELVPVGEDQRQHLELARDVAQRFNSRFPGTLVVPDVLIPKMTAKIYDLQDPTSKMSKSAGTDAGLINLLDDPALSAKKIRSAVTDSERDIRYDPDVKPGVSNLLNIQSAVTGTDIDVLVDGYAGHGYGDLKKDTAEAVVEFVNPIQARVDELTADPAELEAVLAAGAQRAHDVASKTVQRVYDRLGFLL
row,SMILES,pIC50
1,O=C(c1ccco1)N1CCC2(CCCN(c3ncccn3)C2)C1 (stereo not drawn),< 3.71
2,Cc1ccc(Cn2cc(C)c(N)n2)cc1,< 3.71
3,Cc1cc(C)c(CNC(=O)NCc2nnc3n2CCC3)c(=O)[nH]1,< 3.71
4,CCc1n[nH]c(C(=O)NCCn2ccc(C)n2)c1C,< 3.71
5,CN1CCC(Cc2cncc(-c3ccccc3C(=O)O)n2)C1 (stereo not drawn),< 3.71
6,CC(=O)N1N=C(c2cccs2)OC1C(=O)NCCc1cccc(Cl)c1 (stereo not drawn),< 3.71
7,COc1ccc(S(=O)(=O)N2CCC(O)(CN(C)C)C2)cc1 (stereo not drawn),< 3.71
8,O=C(C1CC1)N1CCN2C[C@@H](CO)[C@H](c3ccccc3)[C@H]2C1,< 3.71
9,CC(C)c1ccc(-n2ncc(C(=O)NCC3COC(C)(C)O3)c2N)cc1 (stereo not drawn),< 3.71
10,CS(=O)(=O)N1C[C@@H]2CCN(C(=O)c3cscn3)[C@@H]2C1,< 3.71
11,CC(C)c1cc(CN2CCC(N)CC2)on1,< 3.71
12,CC(=O)N1CCN(CC(N)=O)CC(COc2ccccc2)C1 (stereo not drawn),< 3.71
13,Cc1ccnc(C2CCN(C(=O)c3cnn(C)c3)C2)n1 (stereo not drawn),< 3.71
14,O=C(NCCc1ccncc1)c1cccnc1OCC(F)(F)F,< 3.71
15,CCN(CC)S(=O)(=O)N1CCCC(c2ncc3c(n2)CCN(C)C3)C1 (stereo not drawn),< 3.71
16,NCC(=O)N1CCCC1c1n[nH]cc1-c1ccccc1F (stereo not drawn),< 3.71
17,CC(=O)N1CCCC1c1cccc(Oc2ccccc2F)n1 (stereo not drawn),< 3.71
18,Cc1nc(C2CCCN2C(=O)CC2CCCC2)ncc1C(N)=O (stereo not drawn),< 3.71
19,Cn1cncc1CN1CC[C@](C)(O)[C@@H](Oc2cccc(F)c2)C1,< 3.71
20,O=C1CCC(=O)N1c1nn(Cc2ccc(F)cc2)cc1Cl,< 3.71
21,CN1CCC(Cc2cc(Nc3ccccn3)ncn2)CC1,< 3.71
22,COc1c(C(=O)N2CCNC(=O)C2)cnc2c1c(C)nn2C,< 3.71

row,SMILES,pIC50
1,COCCN1CC(C(=O)N(C)Cc2ccc(Cl)s2)CC1=O (stereo not drawn),< 3.71
2,Cn1ccc(C(=O)N2CCCC2c2[nH]ncc2C(N)=O)n1 (stereo not drawn),< 3.71
3,Cc1cc(N2CCC(c3n[nH]c4nccnc34)C2)ncn1 (stereo not drawn),< 3.71
4,O=C(c1ccc(F)cc1)N1C[C@@H]2COC[C@]2(COc2cccnc2)C1,< 3.71
5,CC(=O)N(C)C(c1cccc(F)c1)c1ccccn1 (stereo not drawn),< 3.71
6,Cc1ccc(S(=O)(=O)N2C[C@H]3C[C@H](NC(=O)c4cc[nH]n4)[C@H]3C2)cc1,< 3.71
7,CN(C)CCN1C[C@@H]2CN(c3ccccc3)C[C@@H]2C1=O,< 3.71
8,O=C(c1ccccn1)N1CCC(Cc2cnc3[nH]ccc3c2)CC1,< 3.71
9,CN(Cc1ccc(F)cc1)CC1(O)CCN(C(=O)c2ccncc2)C1 (stereo not drawn),< 3.71
10,O=C(O)c1ccccc1CN1CCOC(CCc2ccncn2)C1 (stereo not drawn),< 3.71
11,Nc1nccc(C2CCN(CCO)C2)n1 (stereo not drawn),< 3.71
12,CCc1nnc(CN2CCCCC2Cn2cncn2)o1 (stereo not drawn),< 3.71
13,Cc1c[nH]nc1C1CCN(C(=O)C2CCC2)CC1,< 3.71
14,c1csc(CN2C[C@H](OCC3CC3)[C@H]3COC[C@H]32)n1,< 3.71
15,Cn1c(C(=O)NCC2(N)CCCC2)cc2ccccc21,< 3.71
16,CN(C)C(CNCc1nc(-c2ccsc2)no1)c1ccsc1 (stereo not drawn),< 3.71
17,COCCn1cnnc1C1CCCN(C(C)C)C1 (stereo not drawn),< 3.71
18,Cc1c[nH]nc1C1CCN(C(=O)C2CCCC2)C1 (stereo not drawn),< 3.71
19,CNc1cc(C2CCCN2Cc2ccc(OCC(=O)O)cc2)ccn1 (stereo not drawn),< 3.71
20,Fc1ccc(-c2nc(CN3CCCC3Cn3cncn3)co2)cc1 (stereo not drawn),< 3.71
21,Nc1cnc(-c2ccc(F)cc2Cl)cn1,< 3.71
22,O=C(COc1cccc(Cl)c1)N1CCOCC1c1ncon1 (stereo not drawn),< 3.71

row,SMILES,pIC50
1,Cc1nc(O)cc(C2CCN(Cc3ccc(F)c(F)c3)C2)n1 (stereo not drawn),< 3.71
2,Cc1ccc(CNC(=O)c2ccc(CNS(C)(=O)=O)o2)cc1F,< 3.71
3,Cc1cc(N2CCC(c3n[nH]c4nccnc34)CC2)ncn1,< 3.71
4,C[C@]1(O)CN(CCC(N)=O)CC[C@@H]1Oc1cccc(F)c1,< 3.71
5,Cc1cc(C)nc(C2CCCNC2)n1 (stereo not drawn),< 3.71
6,Fc1ccc2c(c1)C1(CCNCC1)CC2NC1CC1 (stereo not drawn),< 3.71
7,Cc1noc(C)c1CN(Cc1cccs1)C1CCS(=O)(=O)C1 (stereo not drawn),< 3.71
8,CCC(NC(=O)c1nn(C)cc1C(=O)O)c1ccc(C)cc1C (stereo not drawn),< 3.71
9,OCCN1CCN(Cc2cnc3c(-c4ccccc4)cnn3c2)CC1,< 3.71
10,CNc1nc2c(s1)C(=O)CN(C(=O)NCCc1ccccc1)C2,< 3.71
11,CO[C@H]1CN(Cc2ccc(F)c(F)c2)C[C@@]12CCCO2,< 3.71
12,c1cnc(N2CCC(c3n[nH]c4ncccc34)C2)nc1 (stereo not drawn),< 3.71
13,CN1CCO[C@@H]2CN(C(=O)NCc3ccccc3)CC[C@@H]2C1,< 3.71
14,Cc1nc(C2CCN(Cc3ncc[nH]3)CC2)no1,< 3.71
15,CC(C)N1CCO[C@@H]2CN(C(=O)NCc3ccccc3)CC[C@@H]2C1,< 3.71
16,O=C(O)C1(Cc2cc(-c3ccccc3F)no2)CCOCC1,< 3.71
17,CN1CCC(c2cncc(-c3cccc(Cl)c3)n2)CC1,< 3.71
18,Cn1cccc1C(=O)N1CC2(CCN(C(=O)c3cccnc3)C2)C1,< 3.71
19,CC(Cn1cccn1)NC(=O)NCCc1ccsc1 (stereo not drawn),< 3.71
20,CC(=O)N1N=C(c2ccccc2)OC1C(=O)NCCc1cccc(F)c1 (stereo not drawn),< 3.71
21,CC(C)N(C)CC(=O)N(C)C(c1cccc(F)c1)c1ccccn1 (stereo not drawn),< 3.71
22,NCCC(=O)Nc1ccc(-c2ccccc2)cc1,< 3.71

row,SMILES,pIC50
1,O=C1CN(CC2CC2)Cc2nc(NCCc3ccccn3)sc21,< 3.71
2,CCS(=O)(=O)N1CC(=O)N(Cc2ccccc2OC)CC(O)C1 (stereo not drawn),< 3.71
3,Cc1cccc(C2CCCN(C(=O)c3ccncc3)C2)n1 (stereo not drawn),< 3.71
4,CN(C)C(=O)CO[C@H]1CN(Cc2ccsc2)[C@@H]2COC[C@H]12,< 3.71
5,CN(CC1(O)CCN(c2ccccn2)C1)C(=O)Cc1ccsc1 (stereo not drawn),< 3.71
6,O=C(NCC1CC2(CO1)CN(c1ncccn1)C2)C1CCC1 (stereo not drawn),< 3.71
7,CCN1Cc2cc(F)ccc2N(CC(O)C(F)(F)F)CCC1=O (stereo not drawn),< 3.71
8,C[S+]([O-])CCNC(=O)Nc1cc(F)ccc1-n1cccn1 (stereo not drawn),< 3.71
9,Cc1cnc(N)c(C(=O)C2CCN(C(=O)c3cnc(C)cn3)CC2)c1,< 3.71
10,CN(C)CC(=O)N1C[C@@H]2CC[C@H](Oc3ccccc3)[C@@H]2C1,< 3.71
11,CC1(C(=O)N2CCOCC2)CN(Cc2ncc[nH]2)CCO1 (stereo not drawn),< 3.71
12,CC(C)N(C)Cc1cncc2c1CCN(CC(=O)N(C)C)C2,< 3.71
13,COc1cc(N(C)CCC(O)c2ccccc2)ncn1 (stereo not drawn),< 3.71
14,O=C(N[C@@H]1CN(Cc2ccc3[nH]ccc3c2)C[C@H]1O)c1cscn1,< 3.71
15,CN(Cc1nnc2n1CCC2)C(=O)c1ccc2c(c1)OCCO2,< 3.71
16,O=C1CO[C@@H]2CN(S(=O)(=O)c3ccc(F)cc3)C[C@H]2N1,< 3.71
17,Cc1nccn1CC1CCCN(C(=O)c2cnn(C)c2)C1 (stereo not drawn),< 3.71
18,O=C(c1cc2c(s1)CCCC2)N1CCc2nc(C3CCCN3)ncc2C1 (stereo not drawn),< 3.71
19,CNC(=O)c1cc2ccccc2n1C,< 3.71
20,COc1ccccc1CC(=O)N1CC[C@H](O)[C@]2(CCCO2)C1,< 3.71
21,CN(C)c1nccc(C2CCN(C3CCCCC3O)CC2)n1 (stereo not drawn),< 3.71
22,CC(=O)NC1CCCN(C(=O)CCc2cccnc2)C1 (stereo not drawn),< 3.71

row,SMILES,pIC50
1,O=C(NCc1cncc2c1CCN(CC1CCOC1)C2)c1ccco1 (stereo not drawn),< 3.71
2,CCn1cc(N)c(-c2nnc3n2CCC3)n1,< 3.71
3,O=C(Cn1ccnc1)N1C[C@@H]2CC[C@H](Oc3ccccc3F)[C@@H]2C1,< 3.71
4,Nc1cc2c(nn1)CCN(C(=O)C1CCc3ccccc31)C2 (stereo not drawn),< 3.71
5,Cc1cc(N(C)C)nc(C2CCNC2)n1 (stereo not drawn),< 3.71
6,Cc1cc(C[C@@H]2COC[C@H]2NCc2ccc(Cl)c(Cl)c2)on1,< 3.71
7,Fc1ccccc1OCCc1cc(C2CNCCO2)n[nH]1 (stereo not drawn),< 3.71
8,CNc1cccc(C2CCCN(C(=O)c3cccnc3)C2)n1 (stereo not drawn),< 3.71
9,Cc1ncsc1C(=O)NC1CCN(CCC#N)CC1,< 3.71
10,O=C(NS(=O)(=O)c1cccnc1)C1CC(c2ccccc2)=NO1 (stereo not drawn),< 3.71
11,CC1CCN(CCCNC(=O)NC(C)c2nncn2C)CC1 (stereo not drawn),< 3.71
12,COCC1CC2(CCN(C(=O)c3cncc(C)c3)CC2)CO1 (stereo not drawn),< 3.71
13,COCCN(C)C(=O)c1nc2c(s1)CCCN2C,< 3.71
14,Cc1ccc(CN2CCO[C@H]3[C@H](OCc4cccnc4)CC[C@@H]32)o1,< 3.71
15,Cc1cnc(N2CCOC(C(=O)NCc3ccccc3)C2)s1 (stereo not drawn),< 3.71
16,c1cncc(CN2CCN3C[C@H](Oc4cncnc4)C[C@H]3C2)c1,< 3.71
17,Cc1noc(C2(C)CCCN(C(=O)c3cccnc3)C2)n1 (stereo not drawn),< 3.71
18,CC1CCCCN1c1nc2c(c(=O)[nH]1)CCN(Cc1ccccc1O)C2 (stereo not drawn),< 3.71
19,CO[C@H]1CN(c2ccccc2)S(=O)(=O)[C@@]12CCN(Cc1ccccc1)C2,< 3.71
20,CC(=O)N1CCCC(c2ccccn2)C1 (stereo not drawn),< 3.71

# Reference: ChEMBL document CHEMBL3988442, “University of Dundee, Small-Polar-MMV Screening Library” (2021)
